PubChem BioAssay (NCI)
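These data come from cells grown in 96-well plates and exposed to compound for 48 hours at five concentrations. TGI marks complete inhibition of growth.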

Legend:
Assay in all cases: NCI-60 cell line screen, 48 h
[1] = test system: HT29 colon
[2] = test system: NCI-H522 lung
[3] = test system: U251 CNS
[4] = test system: COLO 205 colon
[5] = test system: SK-MEL-5 melanoma
[6] = test system: 786-0 renal
[7] = test system: SF-295 CNS
[8] = test system: SNB-75 CNS
[9] = test system: NCI-H460 lung
[10] = test system: SF-539 CNS
[11] = test system: OVCAR-5 ovarian
[12] = test system: A498 renal
[13] = test system: OVCAR-8 ovarian
[14] = test system: HOP-62 NSCLC
[15] = test system: MOLT-4 leukemia
[16] = test system: UACC-62 melanoma
[17] = test system: OVCAR-4 ovarian
[18] = test system: ACHN renal
[19] = test system: M14 melanoma
[20] = test system: HOP-92 NSCLC

| SMILES | TGI [1] [µM] | TGI [2] [µM] | TGI [3] [µM] | TGI [4] [µM] | TGI [5] [µM] | TGI [6] [µM] | TGI [7] [µM] | TGI [8] [µM] | TGI [9] [µM] | TGI [10] [µM] | TGI [11] [µM] | TGI [12] [µM] | TGI [13] [µM] | TGI [14] [µM] | TGI [15] [µM] | TGI [16] [µM] | TGI [17] [µM] | TGI [18] [µM] | TGI [19] [µM] | TGI [20] [µM] |
| --- | --- | --- | --- | --- | --- | --- | --- | --- | --- | --- | --- | --- | --- | --- | --- | --- | --- | --- | --- | --- |
| O=C1NC2(CCCC2)C2CCCCC12O (stereo not given) | > 100 | > 100 | > 100 | > 100 | > 100 | > 100 | > 100 | > 100 | > 100 | > 100 | > 100 | > 100 | > 100 | > 100 | > 100 | > 100 | > 100 | > 100 | > 100 | > 100 |
| O=C(O[C@H]1[C@@H]2C=CO[C@@H](OC3OC(CO)C(O)C(O)C3O)[C@@H]2[C@@]2(CO)O[C@@H]12)c1ccc(O)c(O)c1 (stereo not given in full) | > 100 | > 100 | > 100 | > 100 | > 100 | > 100 | > 100 | > 100 | > 100 | > 100 | > 100 | > 100 | > 100 | > 100 | > 100 | > 100 | > 100 | > 100 | > 100 | > 100 |
| COc1ccccc1NC(=O)CC(=O)n1nc(C)c(N=Nc2ccccc2Cl)c1C | > 100 | > 100 | > 44.2 | > 100 | > 100 | > 100 | > 100 | 57.2 | > 100 | > 100 | > 100 | > 100 | > 100 | > 100 | > 100 | > 100 | > 100 | > 100 | > 100 | > 100 |
